Measurements: patent US20100041089A1, “IMPROVED METHOD FOR DETECTING CHEMICAL […]” (priority 2006, published 2010)

Test system: yeast genes (expressed mRNA)
Test: DNA chip measurement of expressed mRNA of yeast genes after culture with a toxic chemical substance
Type: cell-based, Saccharomyces cerevisiae S288C
Experimental: Yeast (Saccharomyces cerevisiae S288C (a SUC2mal mel gap2 CUP1)) were cultured at 25° C. on YPD medium (yeast extract 1%, polypeptone 2%, glucose 2%). One of toxic chemical substances was added to the cell at logarithmic growth phase, and the cell was further cultured for two hours. Cell was cultured without any chemical substance in the same condition, and was used as a control. Concentrations of the chemical substances were defined to inhibit the growth of the yeast but not lead to death.
After the completion of cultivation, the culture was centrifuged to collect the cells. To the cells, sodium acetate buffer (50 mM sodium acetate, 10 mM EDTA, 1% SDS) was added, and the mixture was shaken at 65° C. for five minutes, followed by returning to room temperature, and obtaining the supernatant, which procedure was repeated two times. To the supernatant, ½ amount of a solution of phenol/chloroform (1:1) was added, and the mixture was centrifuged to give a supernatant, an equal amount of chloroform was added, and the mixture was centrifuged to give a supernatant. To the supernatant, an equal amount of isopropanol containing 0.3 M sodium acetate was added, and the mixture was allowed to stand at room temperature for 30 minutes, after which the mixture was centrifuged to give sediment of the whole RNAs. Seventy % ethanol was added to the sediment, and the mixture was again centrifuged to give sediment, which was then dried and dissolved in water. mRNA was isolated from the whole RNAs as followings. In view of the fact that a poly A chain is attached to the 3′ terminus of mRNA, a polynucleotide having a poly T structure which was immobilized on the surface of latex beads was used to trap the mRNA, and then the mRNA was washed and eluted with spine column (Oligotex-dT30<Super>mRNA Purification Kit, Takara). Reverse transcription of the mRNA was conducted with a reverse transcriptase (Super Script II Reverse Transcriptase; catalogue No. 18064-014, GibcoBRL) using fluorescence-labeled nucleotides to give cDNAs that were introduced with Cy3-dUTP or Cy5-dUTP during the reverse transcription.
The labeled cDNAs were dissolved in TE buffer (10 mM Tris-HCl/1 mM EDTA, pH 8.0), and the solution was dropped on the DNA chip containing the whole genes of yeast (DNA Chip Research Inc. Japan) so that the cDNAs were hybridized on the DNA chip at 65° C. for over 12 hours. The fluoresces intensity of the DNA chip was read with a scanner, and the ratio relative to the fluorescence intensity resulting from the absence of chemical substance was estimated as the following, which is shown in Tables 1 to 9.
In the Tables, “Intensity” indicated in the rightmost column is a value of the level of expressed mRNA of each gene in control cells as divided by the average level of the expressions of the whole genes. A gene of which mRNA level is lower in control, and is higher in cases of addition of chemical substance, is especially useful in the detection of toxic substances.
Here, when a ratio of an amount of mRNA expressed in the presence of the chemical substance to an amount of mRNA expressed in the absence of the chemical substance is two or more, then it is considered significant.

With `S=C([S-])NCCNC(=S)[S-].[Zn+2]` [(11), Zinc N,N′-ethylenebis(dithiocarbamate)] the “The level of expressed mRNA in the presence of chemical substance/The level of expressed mRNA in the absence of chemical substance” value (yeast gene YGL037C, cultured two hours with substance) was 3.9, the “The level of expressed mRNA in the presence of chemical substance/The level of expressed mRNA in the absence of chemical substance” value (yeast gene YGL047W, cultured two hours with substance) was 1.9 and the “The level of expressed mRNA in the presence of chemical substance/The level of expressed mRNA in the absence of chemical substance” value (yeast gene YGL053W, cultured two hours with substance) was 1.3. The “The level of expressed mRNA in the presence of chemical substance/The level of expressed mRNA in the absence of chemical substance” value (yeast gene YGL121C, cultured two hours with substance) was 6.1, the “The level of expressed mRNA in the presence of chemical substance/The level of expressed mRNA in the absence of chemical substance” value (yeast gene YGL136C, cultured two hours with substance) was 1.4 and the “The level of expressed mRNA in the presence of chemical substance/The level of expressed mRNA in the absence of chemical substance” value (yeast gene YGR101W, cultured two hours with substance) was 2.0. The “The level of expressed mRNA in the presence of chemical substance/The level of expressed mRNA in the absence of chemical substance” value (yeast gene YGR110W, cultured two hours with substance) was 0.5, the “The level of expressed mRNA in the presence of chemical substance/The level of expressed mRNA in the absence of chemical substance” value (yeast gene YGR130C, cultured two hours with substance) was 0.8 and the “The level of expressed mRNA in the presence of chemical substance/The level of expressed mRNA in the absence of chemical substance” value (yeast gene YGR146C, cultured two hours with substance) was 0.9. The “The level of expressed mRNA in the presence of chemical substance/The level of expressed mRNA in the absence of chemical substance” value (yeast gene YGR154C, cultured two hours with substance) was 1.5, the “The level of expressed mRNA in the presence of chemical substance/The level of expressed mRNA in the absence of chemical substance” value (yeast gene YGR221C, cultured two hours with substance) was 0.5 and the “The level of expressed mRNA in the presence of chemical substance/The level of expressed mRNA in the absence of chemical substance” value (yeast gene YHR029C, cultured two hours with substance) was 3.8. For the same compound, the “The level of expressed mRNA in the presence of chemical substance/The level of expressed mRNA in the absence of chemical substance” value (yeast gene YHR138C, cultured two hours with substance) was 1.6, the “The level of expressed mRNA in the presence of chemical substance/The level of expressed mRNA in the absence of chemical substance” value (yeast gene YHR199C, cultured two hours with substance) was 1.9 and the “The level of expressed mRNA in the presence of chemical substance/The level of expressed mRNA in the absence of chemical substance” value (yeast gene YHR209W, cultured two hours with substance) was 3.3. The “The level of expressed mRNA in the presence of chemical substance/The level of expressed mRNA in the absence of chemical substance” value (yeast gene YIL023C, cultured two hours with substance) was 1.1, the “The level of expressed mRNA in the presence of chemical substance/The level of expressed mRNA in the absence of chemical substance” value (yeast gene YIL024C, cultured two hours with substance) was 0.6 and the “The level of expressed mRNA in the presence of chemical substance/The level of expressed mRNA in the absence of chemical substance” value (yeast gene YIL041W, cultured two hours with substance) was 1.4. For the same compound, the “The level of expressed mRNA in the presence of chemical substance/The level of expressed mRNA in the absence of chemical substance” value (yeast gene YIL087C, cultured two hours with substance) was 2.8, the “The level of expressed mRNA in the presence of chemical substance/The level of expressed mRNA in the absence of chemical substance” value (yeast gene YIL117C, cultured two hours with substance) was 1.8 and the “The level of expressed mRNA in the presence of chemical substance/The level of expressed mRNA in the absence of chemical substance” value (yeast gene YIL136W, mitochondria-located protein gene) was 4.8. For the same compound, the “The level of expressed mRNA in the presence of chemical substance/The level of expressed mRNA in the absence of chemical substance” value (yeast gene YIR024C) was 6.3, the “The level of expressed mRNA in the presence of chemical substance/The level of expressed mRNA in the absence of chemical substance” value (yeast gene YJL020C, cultured two hours with substance) was 0.6 and the “The level of expressed mRNA in the presence of chemical substance/The level of expressed mRNA in the absence of chemical substance” value (yeast gene YJL057C, cultured two hours with substance) was 2.0. The “The level of expressed mRNA in the presence of chemical substance/The level of expressed mRNA in the absence of chemical substance” value (yeast gene YJL066C, cultured two hours with substance) was 0.8, the “The level of expressed mRNA in the presence of chemical substance/The level of expressed mRNA in the absence of chemical substance” value (yeast gene YJL082W, cultured two hours with substance) was 1.0 and the “The level of expressed mRNA in the presence of chemical substance/The level of expressed mRNA in the absence of chemical substance” value (yeast gene YJL108C, cultured two hours with substance) was 1.0. The “The level of expressed mRNA in the presence of chemical substance/The level of expressed mRNA in the absence of chemical substance” value (yeast gene YJL144W, cultured two hours with substance) was 3.0, the “The level of expressed mRNA in the presence of chemical substance/The level of expressed mRNA in the absence of chemical substance” value (yeast gene YJL149W, cultured two hours with substance) was 1.5 and the “The level of expressed mRNA in the presence of chemical substance/The level of expressed mRNA in the absence of chemical substance” value (yeast gene YJL151C, cultured two hours with substance) was 1.0. The “The level of expressed mRNA in the presence of chemical substance/The level of expressed mRNA in the absence of chemical substance” value (yeast gene YJL152W, cultured two hours with substance) was 1.0, the “The level of expressed mRNA in the presence of chemical substance/The level of expressed mRNA in the absence of chemical substance” value (yeast gene YJL161W, cultured two hours with substance) was 3.7 and the “The level of expressed mRNA in the presence of chemical substance/The level of expressed mRNA in the absence of chemical substance” value (yeast gene YJL171C, cultured two hours with substance) was 2.2. For the same compound, the “The level of expressed mRNA in the presence of chemical substance/The level of expressed mRNA in the absence of chemical substance” value (yeast gene YJL186W, cultured two hours with substance) was 0.6, the “The level of expressed mRNA in the presence of chemical substance/The level of expressed mRNA in the absence of chemical substance” value (yeast gene YJR008W, cultured two hours with substance) was 1.4 and the “The level of expressed mRNA in the presence of chemical substance/The level of expressed mRNA in the absence of chemical substance” value (yeast gene YJR054W, cultured two hours with substance) was 0.7. For the same compound, the “The level of expressed mRNA in the presence of chemical substance/The level of expressed mRNA in the absence of chemical substance” value (yeast gene YJR085C, cultured two hours with substance) was 2.9, the “The level of expressed mRNA in the presence of chemical substance/The level of expressed mRNA in the absence of chemical substance” value (yeast gene YKL034W, cultured two hours with substance) was 1.2 and the “The level of expressed mRNA in the presence of chemical substance/The level of expressed mRNA in the absence of chemical substance” value (yeast gene YKL070W) was 10.4. The “The level of expressed mRNA in the presence of chemical substance/The level of expressed mRNA in the absence of chemical substance” value (yeast gene YKL071W, cultured two hours with substance) was 40.3.
